Data as given in patent publication US9585888B2, “Reduction of toxicity of multi-targeting antifolates” (Isofol Medical AB, priority 2003, dated 2017).
Read-outs that look alike come from different tables or passages of the source.

What was measured:
[1] = tested on: TS; assay: TS expression levels after Tomudex intravenous bolus injection in colorectal cancer patients; assay type: in vivo; conditions: multi-targeting antifolate only
Procedure: In this experiment, the effect of a multi-targeting antifolate, i.e. Tomudex (raltitrexed), was shown.
Nine colorectal cancer patients were included in the study, and the expression levels were measured in actin, which is a protein serving as an important structural molecule for the cytoskeletons of many eukaryotic cells.

[2] = Tissue concentration of methylene-THF in tumor biopsy after i.v. bolus injection of folates; assay type: in vivo, patients; conditions: tumor biopsy at 20 minutes after i.v. bolus injection; compared with leucovorin
Procedure: The level of increase of tissue concentration of methylene-THF after administration of leucovorin and methylene-THF, respectively, has been compared. Patients operated upon due to liver metastases were given a dose of folates. Biopses were taken from the tumor before i.v. bolus injection of leucovorin on methylenetetrahydrofolate. At 20 minutes a new tumor biopsy was taken and the concentration of MTHF was assayed.

[3] = tested on: tumor growth; conditions: cited from earlier work
[4] = tested on: experimental adenocarcinoma
Procedure: Eight inbred female Wistar rats were during general anesthesia inoculated in the central liver lobe with 0.1 ml of 1.0 million viable tumor cells of an experimental adenocarcinoma. On day 5 the animals were relaparotomized during general anesthesia, the body weight was recorded and the size of the solitary liver tumor was measured with vernier calipers.
The animals were randomly allocated to two groups. Group 1 received intravenous injections of ALIMTA (pemetrexed) 0.01 mg/kg and group 2 received 0.1 mg/kg of ALIMTA. Both groups received 15 mg/kg of R-5,10-CH2FH4 immediately following the injections of ALIMTA. Therapy was administered through intravenous injections via the tail vein on days 6-8 and days 11-12. On day 13 all animals were sacrificed by an overdose of anesthesia.
The body weights were recorded and the size of the liver tumors was measured. The wet weights of the excised liver tumor and spleen were recorded.

## Cc1nc2ccc(CN(C)c3ccc(C(=O)N[C@@H](CCC(=O)O)C(=O)O)s3)cc2c(=O)[nH]1 [Tomudex, raltitrexed]
[1]; clinical findings
  clinical toxicity: severe toxic effects from the bowel made it impossible to continue the treatment
[1]; intravenous bolus injection
  effect on normal mucosa versus tumor (TS expression levels): the normal mucosa is actually more adversely affected than the tumor

## Nc1nc2c(c(=O)[nH]1)N1CN(c3ccc(C(=O)N[C@@H](CCC(=O)O)C(=O)O)cc3)CC1CN2 (stereo partly drawn) [methylene-THF, 5,10-methylene-tetrahydrofolate]
[2]
  tissue concentration of methylene-THF in tumor: greater tissue concentration of methylene-THF than leucovorin

## Nc1nc2c(c(=O)[nH]1)N(C=O)C(CNc1ccc(C(=O)N[C@@H](CCC(=O)O)C(=O)O)cc1)CN2 (stereo partly drawn) [folinic acid]
[3]; folinic acid administered without 5-FU
  effect on tumor growth: pronounced growth stimulation

## Nc1nc2[nH]cc(CCc3ccc(C(=O)N[C@@H](CCC(=O)O)C(=O)O)cc3)c2c(=O)[nH]1 [ALIMTA, pemetrexed]
[4]; ALIMTA 0.01 mg/kg i.v. + 15 mg/kg R-5,10-CH2FH4 (group 1), day 13
  extrahepatic tumor growth: extrahepatic tumor growth in the abdominal cavity as metastases to the lungs
[4]; highest Alimta dose (0.1 mg/kg i.v.) + 15 mg/kg R-5,10-CH2FH4 (group 2)
  extrahepatic metastases: no extrahepatic metastases were recorded

## O=c1[nH]cc(F)c(=O)[nH]1 [5-FU, 5-fluorouracil]
[3]; 5-FU administered to folate depleted animals 1 hr after folinic acid
  tumor growth suppression: approximately 80%
[3]; control mice
  tumor growth suppression: approximately 50%
[3]; folinic acid administered 12 hr before 5-FU
  effect on tumor growth: tumor growth stimulation
